Drawing on ChEMBL document CHEMBL4619705, “Conjugation of peptides to short-acyl-chain ceramides for delivery across mucosal cell barriers” (Bioorg Med Chem Lett, 2020), this text covers Drug transport for 3 molecules.

The structures appear in SMILES notation.

A short description of this data set: Drug transport in MDCK2 cells assessed as transcytosis across epithelial monolayers at 37 degree C measured after 3 hrs by transwell assay. The conditions noted are these: dog, mdck-ii. The format is ADME, cell-based, Canis lupus familiaris.
Turning to `CCCCCCCCCCCCCC=CC=C(C=NOCC(=O)NCCCC[C@@H](NC(=O)CNC(=O)[C@@H](CO)NC(=O)CNC(=O)[C@@H](CCCNC(=N)N)NC(=O)CNC(=O)[C@@H](Cc1ccc(O)cc1)NC(=O)CNC(=O)[C@@H](CO)NC(=O)CNC(=O)[C@@H](CCCCNC(=O)CCCC[C@@H]1SC[C@@H]2NC(=O)N[C@@H]21)NC(=O)[C@H](N)Cc1cn(CCCCCCNC(=O)c2ccc(-c3c4ccc(=N)c(S(=O)(=O)O)c-4oc4c(S(=O)(=O)O)c(N)ccc34)c(C(=O)O)c2)nn1)C(N)=O)NC(=O)CCCCC`, the Drug transport came to 5.8%.

Turning to `N=C(N)NCCC[C@@H](NC(=O)CNC(=O)[C@@H](Cc1ccc(O)cc1)NC(=O)CNC(=O)[C@@H](CO)NC(=O)CNC(=O)[C@@H](CCCCNC(=O)CCCC[C@@H]1SC[C@@H]2NC(=O)N[C@@H]21)NC(=O)[C@H](N)Cc1cn(CCCCCCNC(=O)c2ccc(-c3c4ccc(=N)c(S(=O)(=O)O)c-4oc4c(S(=O)(=O)O)c(N)ccc34)c(C(=O)O)c2)nn1)C(=O)NCC(=O)N[C@H](CO)C(=O)NCC(=O)N[C@H](CCCCNC(=O)CON)C(N)=O`, the Drug transport is reported as 0.2%.

In the case of `CCCCCCCCCCCCC/C=C\[C@@H](O)[C@H](/C=N\OCC(=O)NCCCC[C@@H](NC(=O)CNC(=O)[C@@H](CO)NC(=O)CNC(=O)[C@@H](CCCNC(=N)N)NC(=O)CNC(=O)[C@@H](Cc1ccc(O)cc1)NC(=O)CNC(=O)[C@@H](CO)NC(=O)CNC(=O)[C@@H](CCCCNC(=O)CCCC[C@@H]1SC[C@@H]2NC(=O)N[C@@H]21)NC(=O)[C@H](N)Cc1cn(CCCCCCNC(=O)c2ccc(-c3c4ccc(=N)c(S(=O)(=O)O)c-4oc4c(S(=O)(=O)O)c(N)ccc34)c(C(=O)O)c2)nn1)C(N)=O)NC(=O)CCCCC`, the Drug transport was determined as 11.4%.
